According to patent US20230391796A1, “GLYCOSIDASE INHIBITORS AND USES THEREOF” (UNIVERSIDAD DE SEVILLA (US) -UNIVERSITY OF SEVILLE (US), priority 2020, published 2023):
Counter-ions that a name gives are not always drawn.

How the values were obtained:
Type in all cases: biochemical
[1] = target: T1, Recombinant Human Hexosaminidase B (HexB) (Homo sapiens, UniProt P07686); assay: Inhibition assay against rhHexB, 4-methylumbelliferone N-acetyl-β-D-galactosaminide fluorescence; conditions: 5 nM HexB, 150 μM substrate, pH 5.5; NI = no inhibition detected at 200 μM; read-out: hHexB
T1 construct: purchased R&D Systems 8907-GH-020
T1 sequence (P07686 122-556): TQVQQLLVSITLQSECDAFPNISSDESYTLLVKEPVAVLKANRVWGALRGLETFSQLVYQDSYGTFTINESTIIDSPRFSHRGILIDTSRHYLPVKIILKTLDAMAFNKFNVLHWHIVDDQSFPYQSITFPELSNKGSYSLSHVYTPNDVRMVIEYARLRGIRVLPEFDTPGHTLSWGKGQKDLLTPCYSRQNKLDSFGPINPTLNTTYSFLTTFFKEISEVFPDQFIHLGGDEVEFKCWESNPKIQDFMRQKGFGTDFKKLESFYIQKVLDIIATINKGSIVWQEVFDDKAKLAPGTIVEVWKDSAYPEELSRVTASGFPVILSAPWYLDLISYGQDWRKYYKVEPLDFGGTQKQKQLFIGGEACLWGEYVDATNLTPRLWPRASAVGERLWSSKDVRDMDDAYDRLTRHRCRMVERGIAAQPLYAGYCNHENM
Procedure: Inhibition Assays Against rhHexB
Inhibition constant (Ki) values for compounds against Recombinant Human Hexosaminidase B (HexB) enzyme, purchased from R&D Systems (cat# 8907-GH-020) are determined by measuring the change in fluorescent signal corresponding to the rate of hydrolytic activity against the commercially available artificial substrate, 4-Methylumbelliferone N-acetyl-β-D-galactosaminide. HexB activity assays were performed in a buffer 100 mM MES at pH 5.5 and 5 nM [HexB]. Inhibition assays were in the presence or absence of various concentrations of inhibitors and at a fixed substrate concentration of 150 μM and 1% DMSO. First, inhibitor was serially diluted to the desired range of concentrations in 2% DMSO buffer. Next, 50 μL, of inhibitor solutions at various concentrations in 2% DMSO Buffer was added to 50 μL of 20 nM enzyme and allowed to incubate at 25° C. for 5 minutes. 100 μL, of 300 μM and 1% DMSO substrate was then added and reaction mixture was immediately mixed and aliquoted in 45 μL triplicates to a CORNING 384 well black plate. Fluorescence signal was measured continuously for 20 minutes at 25° C. in a BioTek Neo 2 Plate reader set at excitation and emission wavelengths of 355 and 450 nm, respectively. Max reaction rates for all inhibitor concentrations were calculated within Gen5 BioTek reader software. % Activity was subsequently calculated for each inhibitor concentration against the max reaction rate of uninhibited HexB. GraphPad Prism 2016 was used to approximate the Morrison Ki values for each inhibitor.

[2] = target: β-N-acetylglucosaminidase (from bovine kidney); assay: Inhibition assay against commercial β-N-acetylglucosaminidase (bovine kidney), p-nitrophenyl N-acetyl-β-D-glucosaminide substrate; conditions: pH 5.5, 37° C.; average of three determinations ± s.e.m.; NI = no inhibition detected at 200 μM; read-out: Bovine kidney Hex
Procedure: (§1) Inhibition Assays Against Commercial β-N-acetylglucosaminidases
(§2) Inhibition constant (Ki) values were determined by spectrophotometrically measuring the residual hydrolytic activities of the glycosidases against p-nitrophenyl N-acetyl-β-D-glucosaminide. […] Each assay was performed in phosphate-citrate buffer and the reactions were initiated by addition of the enzyme to a solution of the substrate in the absence or presence of various inhibitor concentrations. The mixture was incubated for 10-30 min at 37° C. and the reaction was quenched by addition of 1 M Na2CO3. Reaction times were appropriate to obtain 10-20% conversion of the substrate in order to achieve linear rates. The absorbance of the resulting mixture was determined at 405 nm. Approximate values of Ki were determined using a fixed concentration of substrate (around the Km value for the different glycosidases) and various inhibitor concentrations. Full Ki determinations and enzyme inhibition mode were determined from the slope of Lineweaver-Burk plots and double reciprocal analysis using a Microsoft Office Excel 2007 program.

[3] = target: β-N-acetylglucosaminidase (from jack bean); assay: Inhibition assay against commercial β-N-acetylglucosaminidase (jack bean), p-nitrophenyl N-acetyl-β-D-glucosaminide substrate; conditions: pH 5.5, 37° C.; average of three determinations ± s.e.m.; NI = no inhibition detected at 200 μM; read-out: Jack beans Hex
Procedure: as §1, §2

[4] = target: T2, Recombinant Human Hexosaminidase A (HexA) (Homo sapiens, UniProt P06865); assay: Inhibition assay against rhHexA, 4-methylumbelliferone-N-acetyl-β-D-glucosaminide fluorescence; conditions: IC50 for lysosomal hHexA; NI = no inhibition detected at 200 μM
T2 construct: purchased R&D Systems 6237-GH-020
T2 sequence (P06865 89-529): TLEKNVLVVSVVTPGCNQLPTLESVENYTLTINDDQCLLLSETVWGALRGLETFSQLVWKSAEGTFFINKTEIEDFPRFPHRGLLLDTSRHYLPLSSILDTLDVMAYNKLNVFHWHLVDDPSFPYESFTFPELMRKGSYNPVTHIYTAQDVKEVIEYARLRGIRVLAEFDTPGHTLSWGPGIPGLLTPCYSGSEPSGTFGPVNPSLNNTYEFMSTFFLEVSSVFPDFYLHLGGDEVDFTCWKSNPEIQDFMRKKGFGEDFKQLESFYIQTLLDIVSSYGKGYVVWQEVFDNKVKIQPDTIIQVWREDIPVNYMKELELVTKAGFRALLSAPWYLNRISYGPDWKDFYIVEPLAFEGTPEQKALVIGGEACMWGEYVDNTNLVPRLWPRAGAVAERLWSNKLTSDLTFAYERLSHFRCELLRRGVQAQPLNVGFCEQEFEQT
Procedure: Inhibition Assays Against rhHexA
Human Hexosaminidase A (HexA) enzyme, purchased from R&D Systems (cat# 6237-GH-020), were determined by measuring the fluorescent signal corresponding to the rate of hydrolytic activity against the commercially available artificial substrate, 4-Methylumbelliferone-N-acetyl-β-D-glucosaminide. HexA activity assays were performed in a buffer of 100 mM sodium citrate, 250 NaCl, pH 4.5 and 1.0 nM [HexA], then stopped after 20 minutes with a solution of 1.0 M Tris, pH 9.5 to enhance fluorescent signal. Preliminary experiments have shown that reaction rates are linear for 20 minutes after substrate addition, and that 1.0 M Tris at pH 9.5 is sufficient for stopping activity, as signal is stable after stopping. Inhibition assays were run in the presence or absence of various concentrations of inhibitors and at a fixed substrate concentration of 100 μM and 1% DMSO. First, inhibitor was serially diluted to the desired range of concentrations in 2% DMSO buffer. Next, 25 μL, of inhibitor solutions at various concentrations in 2% DMSO Buffer was added to 25 μL, of 4.0 nM enzyme and allowed to incubate at 25° C. for 5 minutes. 50 μL of 200 μM and 1% DMSO substrate was then added and allowed to react for 20 minutes. 100 μL of stop solution was added to reaction mixture, and immediately mixed and aliquoted in 45 μL triplicates to a CORNING 384 well black plate. Fluorescence signal was measured in a BioTek Neo 2 Plate reader set at excitation and emission wavelengths of 355 and 450 nm, respectively. % Activity was subsequently calculated for each inhibitor concentration against the fluorescence signal of uninhibited HexA. […]

CCCNC(=S)N[C@H]1CN2/C(=N/Cc3ccccc3)SC[C@@H]2[C@@H](O)[C@@H]1O [Compound 19, 2-Propylthioureido-5-N,6-S-(N′-benzyliminomethylidene)-1,2-dideoxy-6-thionojirimycin]
> 200 µM: Ki [1] | Ki [2] | Ki [3] | IC50 [4]

CCC(=O)N[C@H]1CN2/C(=N/Cc3ccc4[nH]ccc4c3)SC[C@@H]2[C@@H](O)[C@@H]1O [Compound 15, 2-Propionamido-5-N,6-S-(N′-5-indolylmethyliminomethylidene)-1,2-dideoxy-6-thionojirimycin hydrochloride]
> 200 µM: Ki [1] | Ki [2] | Ki [3] | IC50 [4]

CC(C)C(=O)N[C@H]1CN2/C(=N/Cc3ccccc3)SC[C@@H]2[C@@H](O)[C@@H]1O [Compound 16, 2-Isobutanamido-5-N,6-S-(N′-benzyliminomethylidene)-1,2-dideoxy-6-thionojirimycin Hydrochloride]
> 200 µM: Ki [1] | Ki [2] | Ki [3] | IC50 [4]

CCC(=O)N[C@H]1CN2/C(=N/Cc3ccccc3)SC[C@@H]2[C@@H](O)[C@@H]1O [Compound 13, 2-Propanamido-5-N,6-S-(N′-benzyliminomethylidene)-1,2-dideoxy-6-thionojirimycin Hydrochloride]
> 200 µM: Ki [1] | Ki [2] | Ki [3] | IC50 [4]

CCNC(=S)N[C@H]1CN2/C(=N/Cc3ccccc3)SC[C@@H]2[C@@H](O)[C@@H]1O [Compound 18, 2-Ethylthioureido-5-N,6-S-(N′-benzyliminomethylidene)-1,2-dideoxy-6-thionojirimycin]
> 200 µM: Ki [1] | Ki [2] | Ki [3] | IC50 [4]

CCCC(=O)N[C@H]1CN2/C(=N/Cc3ccccc3)SC[C@@H]2[C@@H](O)[C@@H]1O [Compound 17, 2-Butanamido-5-N,6-S-(N′-benzyliminomethylidene)-1,2-dideoxy-6-thionojirimycin]
> 200 µM: Ki [1] | Ki [2] | Ki [3] | IC50 [4]

CCC(=O)N[C@H]1CN2/C(=N/Cc3cccc4ccccc34)SC[C@@H]2[C@@H](O)[C@@H]1O [Compound 14, 2-Propionamido-5-N,6-S-(N′-1-naphthylmethyliminomethylidene)-1,2-dideoxy-6-thionojirimycin hydrochloride]
> 200 µM: Ki [1] | Ki [2] | Ki [3] | IC50 [4]
